target: T1, protein tyrosine phosphatase 1 B (PTP1B) (Homo sapiens, UniProt P18031); assay: pNPP phosphatase assay, human recombinant PTP1B, absorbance at […] nm; type: biochemical
T1 construct: gene PTPN1
T1 sequence (P18031 1-435): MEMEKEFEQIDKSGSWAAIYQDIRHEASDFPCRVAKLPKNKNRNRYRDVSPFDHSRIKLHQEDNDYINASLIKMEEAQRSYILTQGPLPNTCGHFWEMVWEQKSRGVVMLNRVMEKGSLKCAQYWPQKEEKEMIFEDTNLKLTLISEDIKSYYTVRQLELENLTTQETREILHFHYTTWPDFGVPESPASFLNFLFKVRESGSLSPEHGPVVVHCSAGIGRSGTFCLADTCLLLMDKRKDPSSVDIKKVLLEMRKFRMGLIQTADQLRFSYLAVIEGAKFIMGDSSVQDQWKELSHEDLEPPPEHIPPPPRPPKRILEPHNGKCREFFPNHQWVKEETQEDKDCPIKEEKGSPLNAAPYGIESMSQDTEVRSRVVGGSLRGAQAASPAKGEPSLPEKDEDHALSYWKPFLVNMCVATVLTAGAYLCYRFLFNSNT

| SMILES | IC50 |
| --- | --- |
| CS[C@@]12CC3=CC=C[C@H](OC(C)=O)[C@H]3N1C(=O)[C@]1(SC)CC3=COC=C[C@H](OC(C)=O)[C@H]3N1C2=O [compound 5, bisdethiobis(methylsulfanyl)acetylapoaranotin] | 25.7 µM |
| CS[C@@]1(Cc2ccccc2)NC(=O)[C@@](Cc2ccccc2O)(SC)NC1=O [compound 3, emethacin C] | 12.3 µM |
| CS[C@@]12CC3=COC=C[C@H](OC(C)=O)[C@H]3N1C[C@]1(SC)CC3=COC=C[C@H](O)[C@H]3N1C2 [compound 7, alternarosin A] | 24.3 µM |
